In ChEMBL document CHEMBL5316329, “Structure-Based Optimization of 2,4,5-Trisubstituted Pyrimidines as Potent HIV-1 Non-Nucleoside Reverse Transcriptase Inhibitors: Exploiting the Tolerant Regions of the Non-Nucleoside Reverse Transcriptase Inhibitors' Binding Pocket” (J Med Chem, 2023):

Key:
[1] = test system: Human immunodeficiency virus 1; test: Antiviral activity against HIV-1 harboring Y188L mutant infected in human MT4 cells assessed as virus-induced cytopathicity treated for 5 days by MTT assay; assay type: functional, organism-based; conditions: Human immunodeficiency virus 1, MT4, 120 h
[2] = target: Cytochrome P450 2D6 (Homo sapiens, UniProt P10635); test: Inhibition of CYP2D6 (unknown origin); assay type: ADME
Chain of Cytochrome P450 2D6 (P10635 whole entry): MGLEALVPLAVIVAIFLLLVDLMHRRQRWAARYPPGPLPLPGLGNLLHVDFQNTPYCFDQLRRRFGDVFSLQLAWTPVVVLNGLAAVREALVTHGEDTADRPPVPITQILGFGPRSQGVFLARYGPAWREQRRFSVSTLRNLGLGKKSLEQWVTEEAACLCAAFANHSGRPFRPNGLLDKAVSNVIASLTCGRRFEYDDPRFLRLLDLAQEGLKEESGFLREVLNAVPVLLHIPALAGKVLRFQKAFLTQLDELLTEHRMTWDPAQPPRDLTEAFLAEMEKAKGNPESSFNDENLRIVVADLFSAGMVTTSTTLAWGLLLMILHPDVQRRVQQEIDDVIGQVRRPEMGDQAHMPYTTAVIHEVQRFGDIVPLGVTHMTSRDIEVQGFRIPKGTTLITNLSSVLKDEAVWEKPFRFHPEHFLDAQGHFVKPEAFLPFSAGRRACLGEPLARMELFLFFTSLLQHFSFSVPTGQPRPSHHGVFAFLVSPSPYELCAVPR

[3] = target: Cytochrome P450 2C19 (Homo sapiens, UniProt P33261); test: Inhibition of CYP2C19 (unknown origin); assay type: ADME
Chain of Cytochrome P450 2C19 (P33261 whole entry): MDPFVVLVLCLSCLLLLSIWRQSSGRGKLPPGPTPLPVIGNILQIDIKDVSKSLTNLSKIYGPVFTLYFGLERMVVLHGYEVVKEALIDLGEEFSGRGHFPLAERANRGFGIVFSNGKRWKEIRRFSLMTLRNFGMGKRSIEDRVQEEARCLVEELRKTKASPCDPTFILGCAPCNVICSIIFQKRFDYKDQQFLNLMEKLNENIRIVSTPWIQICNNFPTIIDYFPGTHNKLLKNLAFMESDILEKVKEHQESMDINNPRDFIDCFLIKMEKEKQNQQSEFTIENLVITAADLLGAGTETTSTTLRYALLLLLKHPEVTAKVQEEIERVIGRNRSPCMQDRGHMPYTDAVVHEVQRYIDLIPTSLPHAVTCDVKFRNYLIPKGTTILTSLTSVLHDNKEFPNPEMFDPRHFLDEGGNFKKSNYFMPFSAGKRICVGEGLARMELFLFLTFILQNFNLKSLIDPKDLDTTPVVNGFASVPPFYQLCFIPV

[4] = Acute toxicity in Kunming mouse assessed as mortality at 2000 mg/kg, po measured after 7 days; assay type: organism-based; conditions: in vivo, 168 h, time 7 day
[5] = Cmax in Sprague-Dawley rat at 10 mg/kg, po; assay type: ADME, organism-based; parameters: dose 10 mg/kg, route po; conditions: in vivo
[6] = target: Human immunodeficiency virus type 1 reverse transcriptase (Human immunodeficiency virus 1, UniProt Q72547); test: Inhibition of wild-type HIV-1 reverse transcriptase assessed as inhibition of biotin-dUTP incorporation
[7] = Selectivity index, ratio of CC50 for human MT4 cells to EC50 for NNRTI-resistant HIV-1 RES056 infected in human MT4 cells; assay type: toxicity, cell-based; conditions: read-out: Selectivity Index
[8] = test system: Human immunodeficiency virus 1; test: Antiviral activity against NNRTI-resistant HIV-1 RES056 infected in human MT4 cells assessed as virus-induced cytopathicity treated for 5 days by MTT assay; assay type: functional, organism-based; conditions: Human immunodeficiency virus 1, RES056, MT4, 120 h
[9] = Oral bioavailability in Sprague-Dawley rat at 10 mg/kg; assay type: ADME, organism-based; conditions: in vivo
[10] = target: T1, Cytochrome P450 1A2 (Homo sapiens, UniProt P05177); test: Inhibition of CYP1A2 (unknown origin); assay type: ADME
T1 sequence (P05177 whole entry): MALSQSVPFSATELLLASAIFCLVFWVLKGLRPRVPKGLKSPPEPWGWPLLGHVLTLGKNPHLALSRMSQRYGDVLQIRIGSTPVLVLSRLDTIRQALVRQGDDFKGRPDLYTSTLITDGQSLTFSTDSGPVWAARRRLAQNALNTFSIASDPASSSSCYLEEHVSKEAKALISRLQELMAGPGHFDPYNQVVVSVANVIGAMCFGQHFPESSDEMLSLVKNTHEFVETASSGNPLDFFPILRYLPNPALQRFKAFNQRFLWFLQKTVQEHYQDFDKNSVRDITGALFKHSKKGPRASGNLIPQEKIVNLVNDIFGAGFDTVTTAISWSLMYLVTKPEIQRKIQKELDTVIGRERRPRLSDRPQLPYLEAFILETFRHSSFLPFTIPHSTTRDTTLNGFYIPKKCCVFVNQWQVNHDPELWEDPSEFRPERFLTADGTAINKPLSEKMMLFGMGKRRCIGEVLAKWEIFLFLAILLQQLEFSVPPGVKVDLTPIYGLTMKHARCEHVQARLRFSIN

[11] = AUC (0 to infinity) in Sprague-Dawley rat at 10 mg/kg, po; assay type: ADME, organism-based; parameters: dose 10 mg/kg, route po; conditions: in vivo
[12] = Selectivity index, ratio of CC50 for human MT4 cells to EC50 for wild-type HIV-1 IIIB infected in human MT4 cells; assay type: toxicity, cell-based; conditions: read-out: Selectivity Index
[13] = test system: Human immunodeficiency virus 1; test: Antiviral activity against HIV-1 E138K mutant infected in human MT4 cells assessed as virus-induced cytopathicity treated for 5 days by MTT assay; assay type: functional, organism-based; conditions: Human immunodeficiency virus 1, MT4, 120 h
[14] = test system: Human immunodeficiency virus 1; test: Antiviral activity against HIV-1 harboring L100I mutant infected in human MT4 cells assessed as virus-induced cytopathicity treated for 5 days by MTT assay; assay type: functional, organism-based; conditions: Human immunodeficiency virus 1, MT4, 120 h
[15] = target: Cytochrome P450 2C9 (Homo sapiens, UniProt P11712); test: Inhibition of CYP2C9 (unknown origin); assay type: ADME
Chain of Cytochrome P450 2C9 (P11712 whole entry): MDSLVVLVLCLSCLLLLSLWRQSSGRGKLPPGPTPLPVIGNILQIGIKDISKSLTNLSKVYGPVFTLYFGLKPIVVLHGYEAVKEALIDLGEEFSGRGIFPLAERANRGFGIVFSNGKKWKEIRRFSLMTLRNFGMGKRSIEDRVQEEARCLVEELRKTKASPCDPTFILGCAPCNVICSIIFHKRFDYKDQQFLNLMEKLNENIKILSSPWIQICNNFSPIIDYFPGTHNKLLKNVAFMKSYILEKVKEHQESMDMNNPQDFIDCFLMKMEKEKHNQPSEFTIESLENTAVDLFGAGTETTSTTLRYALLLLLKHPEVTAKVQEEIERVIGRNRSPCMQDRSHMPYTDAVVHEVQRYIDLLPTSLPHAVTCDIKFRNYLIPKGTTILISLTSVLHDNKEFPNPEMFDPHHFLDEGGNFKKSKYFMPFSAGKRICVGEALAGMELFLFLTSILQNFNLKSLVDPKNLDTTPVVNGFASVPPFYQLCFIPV

[16] = Acute toxicity in Kunming mouse assessed as poisoning symptoms at 2000 mg/kg, po measured after 7 days; assay type: organism-based; conditions: in vivo, 168 h, time 7 day
[17] = test system: Human immunodeficiency virus 1; test: Antiviral activity against HIV-1 harboring Y181C mutant infected in human MT4 cells assessed as virus-induced cytopathicity treated for 5 days by MTT assay; assay type: functional, organism-based; conditions: Human immunodeficiency virus 1, MT4, 120 h
[18] = Half life in Sprague-Dawley rat at 2 mg/kg, iv; assay type: ADME, organism-based; conditions: in vivo
[19] = AUC (0 to infinity) in Sprague-Dawley rat at 2 mg/kg, iv; assay type: ADME, organism-based; parameters: dose 2 mg/kg, route iv; conditions: in vivo
[20] = Cmax in Sprague-Dawley rat at 2 mg/kg, iv; assay type: ADME, organism-based; parameters: dose 2 mg/kg, route iv; conditions: in vivo
[21] = Half life in Sprague-Dawley rat at 10 mg/kg, po; assay type: ADME, organism-based; conditions: in vivo
[22] = Tmax in Sprague-Dawley rat at 10 mg/kg, po; assay type: ADME, organism-based; conditions: in vivo
[23] = Tmax in Sprague-Dawley rat at 2 mg/kg, iv; assay type: ADME, organism-based; conditions: in vivo
[24] = Cytotoxicity against human MT4 cells assessed as reduction in cell viability treated for 5 days by MTT assay; assay type: toxicity, cell-based; conditions: time 5 day
[25] = AUC (0 to t) in Sprague-Dawley rat at 2 mg/kg, iv; assay type: ADME, organism-based; parameters: dose 2 mg/kg, route iv; conditions: in vivo
[26] = test system: Human immunodeficiency virus 1; test: Antiviral activity against HIV-1 harboring K103N mutant infected in human MT4 cells assessed as virus-induced cytopathicity treated for 5 days by MTT assay; assay type: functional, organism-based; conditions: Human immunodeficiency virus 1, MT4, 120 h
[27] = Clearance in Sprague-Dawley rat at 2 mg/kg, iv; assay type: ADME, organism-based; conditions: in vivo
[28] = target: Cytochrome P450 3A4 (Homo sapiens, UniProt P08684); test: Inhibition of CYP3A4 (unknown origin) using midazolam as substrate; assay type: ADME
Chain of Cytochrome P450 3A4 (P08684 whole entry): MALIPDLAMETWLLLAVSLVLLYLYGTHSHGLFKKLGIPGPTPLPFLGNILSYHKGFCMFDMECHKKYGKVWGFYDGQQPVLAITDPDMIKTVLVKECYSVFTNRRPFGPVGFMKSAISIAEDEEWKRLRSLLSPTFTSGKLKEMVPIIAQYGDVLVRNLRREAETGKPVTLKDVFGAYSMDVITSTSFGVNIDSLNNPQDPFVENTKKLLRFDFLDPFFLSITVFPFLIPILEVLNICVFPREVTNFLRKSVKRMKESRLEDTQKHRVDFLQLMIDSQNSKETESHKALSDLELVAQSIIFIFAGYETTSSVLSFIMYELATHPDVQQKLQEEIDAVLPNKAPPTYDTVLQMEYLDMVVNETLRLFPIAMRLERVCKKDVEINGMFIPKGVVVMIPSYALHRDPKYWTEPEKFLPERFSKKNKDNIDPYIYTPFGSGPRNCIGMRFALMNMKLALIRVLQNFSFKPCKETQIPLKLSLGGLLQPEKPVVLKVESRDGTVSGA

[29] = test system: Human immunodeficiency virus 1; test: Antiviral activity against wild-type HIV-1 IIIB infected in human MT4 cells assessed as virus-induced cytopathicity treated for 5 days by MTT assay; assay type: functional, organism-based; conditions: Human immunodeficiency virus 1, IIIB, MT4, 120 h
[30] = AUC (0 to t) in Sprague-Dawley rat at 10 mg/kg, po; assay type: ADME, organism-based; parameters: dose 10 mg/kg, route po; conditions: in vivo
[31] = test system: Human immunodeficiency virus 1; test: Antiviral activity against HIV-1 harboring K103N/Y181C mutant infected in human MT4 cells assessed as virus-induced cytopathicity treated for 5 days by MTT assay; assay type: functional, organism-based; conditions: Human immunodeficiency virus 1, MT4, 120 h
[32] = test system: Human immunodeficiency virus 1; test: Antiviral activity against HIV-1 F227L/V106A mutant infected in human MT4 cells assessed as virus-induced cytopathicity treated for 5 days by MTT assay; assay type: functional, organism-based; conditions: Human immunodeficiency virus 1, MT4, 120 h
[33] = Acute toxicity in Kunming mouse assessed as body weight change at 2000 mg/kg, po measured after 7 days; assay type: organism-based; conditions: in vivo, 168 h, time 7 day

Cc1cc(/C=C/C#N)cc(C)c1Cc1nc(NC2CCN(Cc3ccc(C(N)=O)cc3)CC2)ncc1-c1cncnc1
EC50 ([1]; read-out: EC50): 0.0153 µM
EC50 ([1]; read-out: pEC50 (converted)): 0.0155 µM
IC50 [2]: 42.5 µM
IC50 [3]: > 50 µM
Activity [4]: Non-Toxic
Cmax [5]: 252 ng/mL
EC50 [6]: 0.0049 µM
IC50 [6]: 0.121 µM
selectivity ratio [7]: 2270
EC50 [8]: 0.0101 µM
bioavailability [9]: 31.8%
IC50 [10]: > 50 µM
AUC(0-inf) [11]: 642 ng·h/mL
selectivity ratio [12]: 4630
EC50 ([13]; read-out: EC50): 0.00949 µM
EC50 ([13]; read-out: pEC50 (converted)): 0.00955 µM
EC50 ([14]; read-out: EC50): 0.00343 µM
EC50 ([14]; read-out: pEC50 (converted)): 0.00347 µM
IC50 [15]: 18.9 µM
Activity [16]: Non-Toxic
EC50 ([17]; read-out: EC50): 0.00588 µM
EC50 ([17]; read-out: pEC50 (converted)): 0.00589 µM
half-life [18]: 1.33 h
AUC(0-inf) [19]: 403 ng·h/mL
Cmax [20]: 587 ng/mL
half-life [21]: 1.2 h
Tmax [22]: 2 h
Tmax [23]: 1.98 min
CC50 at 120 h [24]: 22.8 µM
AUC(0-t) [25]: 400 ng·h/mL
EC50 ([26]; read-out: EC50): 0.00477 µM
EC50 ([26]; read-out: pEC50 (converted)): 0.00479 µM
clearance [27]: 82.7 mL/min/kg
IC50 [28]: 10.9 µM
EC50 [29]: 0.00495 µM
AUC(0-t) [30]: 654 ng·h/mL
EC50 [31]: 0.01 µM
EC50 ([32]; read-out: EC50): 0.0118 µM
EC50 ([32]; read-out: pEC50 (converted)): 0.012 µM
Activity [33]: Non-Toxic
